This is an account of results in the supplement of paper PMC11061612.

Holding throughout (assay): Bliss excess, mean over the matrix (fraction); higher = more synergy
Assay [1] relates to NUGC-4 (Gastric Carcinoma). In short, it runs like this:
(§1)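 After 24 hours at 37°C and 5% CO2 in 1536-well plates, cells in DMEM/F12 or RPMI plus 10% FBS received two-drug dose matrices for 72 hours. Viability came from CellTiter-Glo 2.0 luminescence and was scaled as inhibition, anchored at 0 by vehicle wells and at 1 by blank wells. Combination Emax is taken as the second-highest inhibition in the matrix, and Bliss excess as the observed combination effect less EA + EB − EA·EB, with EA and EB the single-agent effects.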

Assay [2] has as its system SW1573 (Lung Adenocarcinoma). In short, it runs like this: as §1
Assay [3] deals with L-428 (Hodgkin's Lymphoma). In short, it runs like this: as §1
In assay [4] the test system is HuCCT1 (Biliary Tract Carcinoma). In short, it runs like this: as §1
The subject of assay [5] is BE-13 (T-Lymphoblastic Leukemia). In short, it runs like this: as §1
Assay [6] concerns SNU-449 (Hepatocellular Carcinoma). The method in brief: as §1
Assay [7] concerns HH (T-Cell Non-Hodgkin's Lymphoma). The method in brief: as §1
The subject of assay [8] is SNU-16 (Gastric Carcinoma). The method in brief: as §1
Assay [9] has as its system SAS (Oral Cavity Carcinoma). In short, it runs like this:
as §1

Assay [10] relates to FTC-133 (Thyroid Gland Carcinoma). In short, it runs like this: as §1
Assay [11] deals with KMRC-20 (Kidney Carcinoma). In short, it runs like this:
as §1

Assay [12] relates to OV-56 (Ovarian Carcinoma). The method in brief: as §1
The next assay has as its system MPP-89 (Mesothelioma). The method in brief:
as §1

Assay [13] relates to NCI-H209 (Small Cell Lung Carcinoma). In short, it runs like this: as §1
The subject of assay [14] is LNZTA3WT4 (Low Grade Glioma). In short, it runs like this: as §1
For another assay, the system named is GAMG (Glioblastoma). The method in brief: as §1
In assay [15] the test system is SW1710 (Bladder Carcinoma). In short, it runs like this:
as §1

In another assay the test system is LOXIMVI (Melanoma). In short, it runs like this:
as §1

Assay [16] has as its system BFTC-909 (Kidney Carcinoma). The method in brief:
as §1

The test system of assay [17] is HeLa (Cervical Carcinoma). In short, it runs like this: as §1

In the case of `Cc1c2c(nn1C)CSCc1cc(n(C)n1)CSc1cc(c3ccccc3c1)OCCCc1c(C(=O)O)n(C)c3c-2c(Cl)ccc13` [AZD5991] + CC1(C)CCC(CN2CCN(c3ccc(C(=O)NS(=O)(=O)c4ccc(NCC5CCOCC5)c([N+](=O)[O-])c4)c(Oc4cnc5[nH]ccc5c4)c3)CC2)=C(c2ccc(Cl)cc2)C1 [Venetoclax] (first compound max 1 µM, 7x7, partner max 1 µM), the Bliss excess is -0.0621 in assay [1]; -0.0549 in assay [2]; -0.0151 in assay [3]; -0.0557 in [4]; 0.106 in [5]; -0.0286 in assay [6]. The Bliss excess in assay [7] was 0.0016; in assay [8], 0.0558; in assay [9] it was 0.0098; in assay [10], -0.0233; in [11] it was -0.0206; in [12], 0.0077. Also, the Bliss excess is -0.0065 with MPP-89 (Mesothelioma); 0.241 in assay [13]; 0.0364 in [14]; -0.0047 in the assay with GAMG (Glioblastoma); -0.019 in assay [15]; -0.0182 in the assay with LOXIMVI (Melanoma). In addition, the Bliss excess in [16] is -0.0001; in [17], 0.0343.
Turning to `COc1cccc(OCCCN)c1-c1cc(Nc2cnc(C#N)cn2)n[nH]1` [Prexasertib] + CCc1c2c(nc3ccc(O)cc13)-c1cc3c(c(=O)n1C2)COC(=O)[C@]3(O)CC [SN-38] (first compound max 1 µM, 7x7, partner max 0.3 µM), the Bliss excess in assay [1] is -0.0568; in assay [2] it was -0.0144; in assay [3], -0.0235; in [4], -0.0044; in assay [5], 0.0072; in assay [6], -0.0091. The Bliss excess was 0.0727 in [7]; 0.0333 in assay [8]; -0.0246 in assay [9]; -0.0278 in assay [10]; -0.0215 in assay [11]; 0.009 in assay [12]. Besides, the Bliss excess with MPP-89 (Mesothelioma) is 0.0256; in assay [13] it was 0.0053; in assay [14], 0.0266; in the assay with GAMG (Glioblastoma), 0.0292; in [15] it was 0.0504; with LOXIMVI (Melanoma), -0.0455. The Bliss excess in [16] amounted to 0.0075; in [17], 0.0837.
In the case of `COc1nnc2ccc(N3CCC(c4ccc(OCCN5CCN(C)C(=O)[C@H]5C)cc4)CC3)nn12` [AZD5153] + C[C@@H]1COCCN1C2=NC(=NC(=C2)C3(CC3)[S@](=N)(=O)C)C4=C5C=CNC5=NC=C4 [AZD6738] (first compound max 1 µM, 7x7, partner max 10 µM), the Bliss excess in assay [1] is 0.0188; in assay [2] it was 0.109; in [3], 0.009; in assay [4], -0.046; in assay [5], -0.0227; in assay [6], -0.0048. Also, the Bliss excess in assay [7] was -0.0324; in assay [8], -0.0408; in [9], -0.0483; in [10], 0.0856; in assay [11], 0.0821; in [12], 0.0824. Also, the Bliss excess in the assay on MPP-89 (Mesothelioma) is 0.0648; in [13], 0.019; in assay [14], 0.0648; with GAMG (Glioblastoma) it was 0.04; in [15], 0.0013; in the assay with LOXIMVI (Melanoma), -0.0413. Further, the Bliss excess was -0.0072 in assay [16] and -0.0406 in assay [17].
Turning to `CCN(CCO)CCCOc1ccc2c(Nc3cc(CC(=O)Nc4cccc(F)c4)[nH]n3)ncnc2c1` [AZD2811] + O=C(c1cc(Cc2n[nH]c(=O)c3ccccc23)ccc1F)N1CCN(C(=O)C2CC2)CC1 [Olaparib] (first compound max 1 µM, 7x7, partner max 10 µM), the Bliss excess in assay [1] is 0; in [2], 0.0123; in assay [3], 0.0277; in [4], -0.0187; in [5] it was -0.0163; in [6], -0.0368. The Bliss excess is -0.0353 in assay [7]; -0.0101 in assay [8]; 0.0114 in assay [9]; -0.0174 in assay [10]; 0.0017 in assay [11]; -0.0081 in [12]. Further, the Bliss excess in the assay on MPP-89 (Mesothelioma) is -0.0334; in [13], 0.0418; in assay [14], -0.0005; with GAMG (Glioblastoma), -0.0041; in assay [15], 0.0073; in the assay on LOXIMVI (Melanoma), 0.0073. Moreover, the Bliss excess was 0.0468 in assay [16] and -0.0154 in assay [17].
For `Cc1c2c(nn1C)CSCc1cc(n(C)n1)CSc1cc(c3ccccc3c1)OCCCc1c(C(=O)O)n(C)c3c-2c(Cl)ccc13` [AZD5991] + C[C@@H]1COCCN1C2=NC(=NC(=C2)C3(CC3)[S@](=N)(=O)C)C4=C5C=CNC5=NC=C4 [AZD6738] (first compound max 1 µM, 7x7, partner max 10 µM), the Bliss excess was determined as 0.02 in assay [1]; 0.0337 in assay [2]; 0.023 in assay [3]; 0.0206 in [4]; 0.0135 in [5]; 0.0175 in assay [6]. Moreover, the Bliss excess is 0.0317 in assay [7]; 0.0167 in assay [8]; -0.0367 in assay [9]; 0.0969 in assay [10]; -0.0153 in assay [11]; 0.0293 in assay [12]. For the same compound, the Bliss excess in the assay on MPP-89 (Mesothelioma) is -0.0426; in assay [13] it was 0.138; in assay [14], -0.0028; in the assay on GAMG (Glioblastoma) it was 0.0116; in [15], 0.0299; with LOXIMVI (Melanoma) it was -0.0373. The figures for the Bliss excess in assay [16] and in [17] were 0.0508 and 0.0217, respectively.
